Laboratory results taken from article PMC2584942, “Phase I dose escalation study of telatinib (BAY 57-9352) in patients with advanced solid tumours” (British Journal of Cancer, 2008).
Entries after “also recorded” stand apart in the source; their conditions may differ.

Tests used:
[1] = test system: human umbilical vein endothelial cells; parameters: method as in printed; details: human umbilical vein endothelial cells in vitro; background statement, ref not given; cited from earlier work
[2] = Phase I dose escalation: study drug-related adverse events (NCI CTC v2.0), DLT, MTD; format: in vivo
Procedure: Administration of telatinib was continued until an unacceptable toxicity, disease progression or death occurred or the consent was withdrawn. At start of the study, only a solution formulation was available. The formulation as tablet was introduced into the study after first pharmacokinetic results became available. Based on pharmacokinetic data, OD, two times daily (BID), and three times daily schedules were evaluated.
Three patients were initially enroled at each dose level. […] If any patient experienced a DLT, three additional patients were enroled at that dose level. If at least two out of six patients experienced a DLT, dose escalation had to be stopped and that dose was to be declared the toxic dose. The next lower dose level was defined as the MTD. […] In the course of the study the protocol was amended so that the onset of CTC grade 3 hypertension was only considered to be a DLT if the hypertension turned out to be refractory to standard antihypertensive treatment.
Adverse events were assessed at the end of each cycle and graded according to the National Cancer Institute Common Toxicity Criteria (NCI CTC), v2.0 ([Trotti et al, 2000]).
History, physical examinations, haematological and biochemical laboratory evaluations were performed at screening, on days 1, 7 and 14 of cycle 1 and on day 1 of subsequent cycles. Baseline objective tumour measurements were performed within 4 weeks prior to study treatment. Lesions at all disease sites were categorised as either measurable or nonmeasurable. Indicator lesions were selected and monitored throughout the study by the same assessor and using the same technique. Tumour response was evaluated according to the RECIST ([Therasse et al, 2000]).

major human CYP isoforms = test system: major human CYP isoforms; parameters: method as in printed; details: at therapeutically relevant concentrations; background statement, ref not given; cited from earlier work
bFGF = assay: Plasma bFGF concentration (ELISA); format: in vivo, human; details: after 14 days of multiple dosing
Procedure: The effects of telatinib treatment on the plasma concentrations of sVEGFR-2, VEGF and bFGF were determined from blood samples taken at baseline, on day 14 of cycles 1, 2, 4, 6, etc. and at the final visit. Samples were analysed using the relevant quantitative enzyme-linked immunosorbent assay (ELISA) (R&D Systems Europe, Oxford, UK) according to the manufacturer's instructions. DCE-MRI was performed at baseline, on day 2 (only cycle 1), and on day 14 of cycles 1–3 to assess tumour blood flow/tumour vessel permeability in a subgroup of patients ([Morgan et al, 2003]).
To assess the biological activity of telatinib, plasma concentration analyses for the angiogenic markers VEGF, sVEGFR-2, bFGF, PDGF and […] were performed at baseline and during the course of the study. Furthermore, DCE-MRI measurements were done at baseline, on days 2 and 14 of cycle 1 and on day 14 of cycles 2 and 3. Evaluable DCE-MRI results were available for a subgroup of patients treated at dose levels of 300 mg BID or higher.

[3] = continuous dosing 600 mg BID (N=7)
[4] = continuous dosing 900 mg BID (N=6)
[5] = continuous dosing 1200 mg BID (N=7)
[6] = continuous dosing 1500 mg BID (N=6)
[7] = noncontinuous dosing 600 mg BID (N=6)
[8] = noncontinuous dosing 900 mg BID (N=6)
[9] = noncontinuous dosing 1500 mg BID (N=6)
[10] = noncontinuous dosing 75–300 mg BID (N=27)

## CNC(=O)c1cc(COc2nnc(Nc3ccc(Cl)cc3)c3ccoc23)ccn1 [telatinib]
[1]
  VEGF-dependent proliferation: inhibited
[2]; 300 mg BID, 1500 mg BID noncontinuous and 1200 mg BID continuous dosing
  Patients with hypertension resulting in dose reduction and dose interruption: three
[2]; 1500 mg BID continuous dosing, first 21 days of treatment
  Patients with dose-limiting toxicities: no patient out of six patients; also recorded: none of the six patients
[2]; 1500 mg BID noncontinuous dosing, grade 3 hypertension refractory to standard treatment
  Patients with dose-limiting toxicities: one out of six patients
[2]; Total, all patients N=71
  Incidence of patients with study drug-related adverse events, worst CTC grade 3: Abdominal pain or cramping: 2 (3) N(%)
  Incidence of patients with study drug-related adverse events, worst CTC grade 3: Any event: 18 (25) N(%)
  Incidence of patients with study drug-related adverse events, worst CTC grade 3: Dehydration: 1 (1) N(%)
  Incidence of patients with study drug-related adverse events, worst CTC grade 3: Diarrhoea, patients with colostomy: 1 (1) N(%)
  Incidence of patients with study drug-related adverse events, worst CTC grade 3: Diarrhoea, patients without colostomy: 4 (6) N(%)
  Incidence of patients with study drug-related adverse events, worst CTC grade 3: Hand–foot skin reaction: 1 (1) N(%)
  Incidence of patients with study drug-related adverse events, worst CTC grade 3: Hypertension: 16 (23) N(%)
  Incidence of patients with study drug-related adverse events, worst CTC grade 3: Rash/desquamation: 1 (1) N(%)
  Incidence of patients with study drug-related adverse events, worst CTC grades 1–2: Alopecia: 2 (3) N(%)
  Incidence of patients with study drug-related adverse events, worst CTC grades 1–2: Anorexia: 5 (7) N(%)
  Incidence of patients with study drug-related adverse events, worst CTC grades 1–2: Any event: 15 (21) N(%)
  Incidence of patients with study drug-related adverse events, worst CTC grades 1–2: Diarrhoea, patients without colostomy: 4 (6) N(%)
  Incidence of patients with study drug-related adverse events, worst CTC grades 1–2: Fatigue: 2 (3) N(%)
  Incidence of patients with study drug-related adverse events, worst CTC grades 1–2: Flatulence: 2 (3) N(%)
  Incidence of patients with study drug-related adverse events, worst CTC grades 1–2: Hypertension: 3 (4) N(%)
  Incidence of patients with study drug-related adverse events, worst CTC grades 1–2: Nausea: 3 (4) N(%)
  Incidence of patients with study drug-related adverse events, worst CTC grades 1–2: Voice changes/stridor/larynx: 5 (7) N(%)
  Incidence of patients with study drug-related adverse events, worst CTC grades 1–2: Vomiting: 2 (3) N(%)
[2]; all patients
  Patients dose reduced or discontinued permanently due to drug-related adverse events: nine out of 71
[2]; all patients N=71
  Hypertension, study drug-related, CTC grade 3: 23%
  Hypertension, study drug-related, worst CTC grade 1–2: 4%
  Patients with at least one study drug-related adverse event, worst CTC grade 1–2: 21%
  Patients with at least one study drug-related adverse event, worst CTC grade 3: 25%
  Study drug-related adverse events of CTC grades 4 or 5: no study drug-related adverse events of CTC grades 4 or 5
[2]; all patients N=71 (with and without colostomy)
  Diarrhoea, study drug-related, CTC grade 3: 7%
[2]; all patients, diarrhoea, hypertension, hand–foot skin reaction and dehydration
  Patients with serious study drug-related adverse events: five
[2]; [3]
  Incidence of patients with study drug-related adverse events, worst CTC grades 1–2: Any event: 1 (14) N(%)
  Incidence of patients with study drug-related adverse events, worst CTC grades 1–2: Diarrhoea, patients without colostomy: 1 (14) N(%)
[2]; [4]
  Incidence of patients with study drug-related adverse events, worst CTC grade 3: Any event: 3 (50) N(%)
  Incidence of patients with study drug-related adverse events, worst CTC grade 3: Dehydration: 1 (17) N(%)
  Incidence of patients with study drug-related adverse events, worst CTC grade 3: Diarrhoea, patients with colostomy: 1 (17) N(%)
  Incidence of patients with study drug-related adverse events, worst CTC grade 3: Diarrhoea, patients without colostomy: 1 (17) N(%)
  Incidence of patients with study drug-related adverse events, worst CTC grade 3: Hand–foot skin reaction: 1 (17) N(%)
  Incidence of patients with study drug-related adverse events, worst CTC grade 3: Hypertension: 2 (33) N(%)
  Incidence of patients with study drug-related adverse events, worst CTC grade 3: Rash/desquamation: 1 (17) N(%)
  Incidence of patients with study drug-related adverse events, worst CTC grades 1–2: Alopecia: 1 (17) N(%)
  Incidence of patients with study drug-related adverse events, worst CTC grades 1–2: Any event: 2 (33) N(%)
  Incidence of patients with study drug-related adverse events, worst CTC grades 1–2: Nausea: 1 (17) N(%)
  Incidence of patients with study drug-related adverse events, worst CTC grades 1–2: Voice changes/stridor/larynx: 1 (17) N(%)
[2]; [5]
  Incidence of patients with study drug-related adverse events, worst CTC grade 3: Abdominal pain or cramping: 1 (14) N(%)
  Incidence of patients with study drug-related adverse events, worst CTC grade 3: Any event: 5 (71) N(%)
  Incidence of patients with study drug-related adverse events, worst CTC grade 3: Diarrhoea, patients without colostomy: 2 (29) N(%)
  Incidence of patients with study drug-related adverse events, worst CTC grade 3: Hypertension: 5 (71) N(%)
  Incidence of patients with study drug-related adverse events, worst CTC grades 1–2: Any event: 1 (14) N(%)
  Incidence of patients with study drug-related adverse events, worst CTC grades 1–2: Flatulence: 1 (14) N(%)
[2]; [6]
  Incidence of patients with study drug-related adverse events, worst CTC grades 1–2: Any event: 2 (33) N(%)
  Incidence of patients with study drug-related adverse events, worst CTC grades 1–2: Diarrhoea, patients without colostomy: 2 (33) N(%)
  Incidence of patients with study drug-related adverse events, worst CTC grades 1–2: Flatulence: 1 (17) N(%)
  Incidence of patients with study drug-related adverse events, worst CTC grades 1–2: Hypertension: 1 (17) N(%)
  Incidence of patients with study drug-related adverse events, worst CTC grades 1–2: Nausea: 1 (17) N(%)
  Incidence of patients with study drug-related adverse events, worst CTC grades 1–2: Vomiting: 1 (17) N(%)
[2]; continuous dosing, MTD not reached up to highest dose
  Maximum-tolerated dose (MTD): > 1500 mg BID
[2]; cycle 1, day 14 vs baseline
  diastolic blood pressure, change from baseline: increase
[2]; dose levels of 900 mg BID or higher
  Patients with diarrhoea leading to dose reduction or interruption: four
[2]; grade 3 hypertension refractory to standard treatment, at 300 and 1500 mg BID noncontinuous dosing
  Patients with dose-limiting toxicities: two
[2]; human, in vivo
  Maximum-tolerated dose (MTD): > 1500 mg BID
[2]; [7]
  Incidence of patients with study drug-related adverse events, worst CTC grade 3: Any event: 3 (50) N(%)
  Incidence of patients with study drug-related adverse events, worst CTC grade 3: Hypertension: 3 (50) N(%)
  Incidence of patients with study drug-related adverse events, worst CTC grades 1–2: Anorexia: 1 (17) N(%)
  Incidence of patients with study drug-related adverse events, worst CTC grades 1–2: Any event: 2 (33) N(%)
  Incidence of patients with study drug-related adverse events, worst CTC grades 1–2: Fatigue: 2 (33) N(%)
  Incidence of patients with study drug-related adverse events, worst CTC grades 1–2: Voice changes/stridor/larynx: 2 (33) N(%)
[2]; [8]
  Incidence of patients with study drug-related adverse events, worst CTC grade 3: Any event: 2 (33) N(%)
  Incidence of patients with study drug-related adverse events, worst CTC grade 3: Hypertension: 2 (33) N(%)
  Incidence of patients with study drug-related adverse events, worst CTC grades 1–2: Anorexia: 1 (17) N(%)
  Incidence of patients with study drug-related adverse events, worst CTC grades 1–2: Any event: 3 (50) N(%)
  Incidence of patients with study drug-related adverse events, worst CTC grades 1–2: Hypertension: 1 (17) N(%)
  Incidence of patients with study drug-related adverse events, worst CTC grades 1–2: Voice changes/stridor/larynx: 2 (33) N(%)
[2]; [9]
  Incidence of patients with study drug-related adverse events, worst CTC grade 3: Abdominal pain or cramping: 1 (17) N(%)
  Incidence of patients with study drug-related adverse events, worst CTC grade 3: Any event: 4 (67) N(%)
  Incidence of patients with study drug-related adverse events, worst CTC grade 3: Diarrhoea, patients without colostomy: 1 (17) N(%)
  Incidence of patients with study drug-related adverse events, worst CTC grade 3: Hypertension: 3 (50) N(%)
  Incidence of patients with study drug-related adverse events, worst CTC grades 1–2: Anorexia: 2 (33) N(%)
  Incidence of patients with study drug-related adverse events, worst CTC grades 1–2: Any event: 2 (33) N(%)
  Incidence of patients with study drug-related adverse events, worst CTC grades 1–2: Diarrhoea, patients without colostomy: 1 (17) N(%)
  Incidence of patients with study drug-related adverse events, worst CTC grades 1–2: Hypertension: 1 (17) N(%)
  Incidence of patients with study drug-related adverse events, worst CTC grades 1–2: Nausea: 1 (17) N(%)
  Incidence of patients with study drug-related adverse events, worst CTC grades 1–2: Vomiting: 1 (17) N(%)
[2]; [10]
  Incidence of patients with study drug-related adverse events, worst CTC grade 3: Any event: 1 (4) N(%)
  Incidence of patients with study drug-related adverse events, worst CTC grade 3: Hypertension: 1 (4) N(%)
  Incidence of patients with study drug-related adverse events, worst CTC grades 1–2: Alopecia: 1 (4) N(%)
  Incidence of patients with study drug-related adverse events, worst CTC grades 1–2: Anorexia: 1 (4) N(%)
  Incidence of patients with study drug-related adverse events, worst CTC grades 1–2: Any event: 2 (7) N(%)
Major human CYP isoforms
  inhibitory and inductive potential on major human CYP isoforms: neither an inhibitory nor an inductive potential
bFGF
  bFGF plasma levels: no relevant changes
